SMILES strings stand for the structures.

One may read the melting point as the temperature of the solid-liquid transition.

`C=C(C)CCOc1c(-c2ccc(S(C)(=O)=O)cc2)cnn(-c2cccc(Cl)c2)c1=O` came in with a melting point of 110 to 112 °C. Then `Cc1oc(-c2ccccc2)nc1COc1cccc2cc(NS(=O)(=O)C(F)(F)F)ccc12`, with 192 to 194 °C. Then `O=C(O)CCc1cc(Cl)cc2nc(-c3ccccc3Cl)oc12`, with 152 to 154 °C. The figure for `COc1ccc(C(=O)N2CCN(CC(=O)N3CC=C(c4cccc(C(F)(F)F)c4)n4ncc(C#N)c43)CC2)cc1` is 151 to 153 °C; for `c1ccc(CC2=NOC3(CCNCC3)C2)cc1` it is 51 to 54 °C; for `N#CC(c1ccc(Cl)c(C(F)(F)F)c1)N1CCOCC1` (centres undefined) it is 73 to 74 °C. `CCCCc1nc(Cl)c(C=O)n1Cc1ccc2oc(-c3ccccc3C#N)c(OC)c2c1` displayed a melting point of 118 to 120 °C.

`CC(=O)OCc1c2ccccc2cc2ccccc12`: the melting point was 110 to 112 °C. Then `CCCCCOc1ccc2c(c1)C=C(CN)CO2`, with 126 °C. The figure for `CCOC(=O)c1c(C(=O)C(=O)OC)c2cc(Cl)ccc2n1C` is 119 to 120 °C; for `CCN1CCCOc2cc(Nc3ncc(Cl)c(N[C@@H]4CCCC[C@H]4NS(C)(=O)=O)n3)ccc21` it is 108 to 110 °C. Then `CN1CCN(Cc2ccc(NC(=O)c3nsc4cc(Oc5ccnc(N)n5)ccc34)cc2C(F)(F)F)CC1`, with 215 to 217 °C; and `COc1ccc2sc(C(=O)OCC(C)(C)C(=O)C(C)(C)C)cc2c1`, with 74 to 75.5 °C.

In turn, `CCCC(=O)NCC1(C)Cc2c(C)c(N3CCN(c4ccc(OC)cc4)CC3)c(C)c(C)c2O1` (centres undefined) had a melting point of 140 to 142 °C. As to `C[C@H]1C=CC2=C[C@@H](O)C[C@H](OC(=O)C(C)(C)Oc3ccccc3)[C@@H]2[C@H]1CC[C@@H]1C[C@@H](O)CC(=O)O1`, the melting point was 155 to 158 °C.

Turning to `NCCC(O)(c1ccc(Cl)cc1)c1ccc(-c2ccc(Cl)cc2)cc1` (centres undefined), the melting point is 131 to 132 °C.

In turn, `CCN(CC)C(=O)c1cc(-c2ccccc2)c2sccc2c1` had a melting point of 78 °C.

Take `C=Cc1ccc(-c2ccc3cc(C(=O)OCc4ccccc4)ccc3c2)cc1C12CC3CC(CC(C3)C1)C2`: the melting point lay in the range of 158 to 160 °C. The figure for `N#CCc1cccc(C(=O)c2ccc(Cl)cc2)c1N` is 181 to 182 °C; for `CCOP(=O)(OCC)C1(P(=O)(OCC)OCC)CC(C(=O)c2ccccc2)=NN1` it is 134 °C. `C[C@@H]1O[C@@]1(Cn1cncn1)c1ccc(Cl)cc1` yielded a melting point of 51 to 53 °C. `NCc1cccc(OCCC(=O)O)c1` registered a melting point of 134 to 138 °C.

`CCOC(=O)C1=C(C)N=C(NC)N(C(=O)OCC)C1c1cccc([N+](=O)[O-])c1` (centres undefined) showed a melting point of 112 to 114 °C. The figure for `CC(C)(C)c1cc(SCCc2nnc(N)o2)cc(C(C)(C)C)c1O` is 172 to 174 °C; for `O=C(NCc1ccccc1N1CCNCC1)c1cnc2c(-c3cccc(Cl)c3)cnn2c1` it is 185 to 188 °C; for `COc1cc2ncnc(NC3=CC(=O)C(N(C)C)=CC3=O)c2cc1OC` it is 245 to 250 °C.

`O=C1N[C@H](Cc2ccc(Oc3ccccc3)cc2)[C@H](c2ccc(F)cc2)O1` (racemic) yielded a melting point of 144 to 145 °C.

`O=C(O)C1CS(=O)(=O)C2CC(=O)N12` (centres undefined) showed a melting point of 164 to 167 °C.

`Cc1cc(C(=O)N(C)C)ncc1C(c1cc(F)ccc1F)S(=O)(=O)c1ccc(Cl)cc1` (centres undefined) displayed a melting point of 207 to 208 °C. The figure for `CC(C)Nc1cccc(C2CN3CCSC3=N2)c1` (centres undefined) is 47 to 51 °C; for `Brc1cccc2[nH]cc(Sc3ccccc3)c12` it is 137 to 139 °C; for `CSc1cccc2c1Oc1ccccc1N2[Si](C)(C)C(C)(C)C` it is 61 to 62 °C. The figure for `COC(=O)C=Cc1c(C(=O)OC)[nH]c2c(C)ccc(C)c12` is 135 to 136 °C. The figure for `Cc1ccc(CNC(=O)C2=C3N(CCC2=O)c2ccccc2N3CCN(C)C)cc1` is 120 to 122 °C.
